Values quoted from earlier work in patent publication US20020012702A1, “Controlled release anti-inflammatory oral formulation and a process for the preparation thereof” (Ajanta Pharma, Ltd., priority 2000, published 2002).

nimesulide plasma concentrations in the presence of food versus fasting conditions (administered in the presence of food, higher than under fasting conditions): 2 to 4 fold | half life (in vivo): 3 to 4 h
SMILES: CS(=O)(=O)Nc1ccc([N+](=O)[O-])cc1Oc1ccccc1 [Nimesulide, 4-Nitro-2-phenoxymethane sulfonanilide]
